We go through 3 compounds from US6683029B1, “Halopyrimidines” (Bayer Aktiengesellschaft, priority 1999, dated 2004).

Data set [1] in a line: logP by HPLC (EEC Directive 79/831 Annex V. A8).
The test system of a further data set is Plutella. The data set is described as follows: Plutella test/synthetic feed. It counts as in vivo. Particulars: Plutella larvae on treated synthetic feed; concentration and time not stated. On the procedure:
Plutella Test/Synthetic Feed [table] […] A stated amount of the preparation of active compound of the desired concentration is pipetted onto a standardized amount of synthetic feed. After the methanol has evaporated, a film box lid covered with about 100 Plutella eggs is placed onto each cavity. The freshly hatched larvae migrate onto the treated synthetic feed. After the desired period of time, the kill in % is determined. 100% means that all animals have been killed; 0% means that none of the animals have been killed.

Broadly, the chromatographic logP is a lipophilicity value derived from retention on a column. Take `CON=C(C(=O)OC)c1ccccc1Oc1ncnc(Oc2cccc(F)c2)c1F` [Example 1, Methyl 2-{2-[6-(3-fluorophenoxy)-5-fluoro-pyrimidin-4-yloxy]-phenyl}-2-methoxyiminoacetate]: in data set [1], the chromatographic logP came to 3.46.
Turning to `CON=C(C(=O)OC)c1ccccc1Oc1ncnc(Oc2cc(Cl)ccc2Cl)c1F` [Example 10], the “activity (kill)” value with Plutella was “good activity”.
By logP is commonly meant the decadic logarithm of the partition coefficient of the neutral form, usually between octanol and water. Low values mean lower lipophilicity, high ones higher lipophilicity. In the case of `CCSCc1ccccc1Oc1ncnc(Oc2ccccc2C(=NOC)C(=O)OC)c1F` [Example 16], in data set [1] (HPLC, gradient method, acetonitrile/0.1% aqueous phosphoric acid), the log partition coefficient (logP) was determined as 3.97.
